For two compounds, Activity results are on record in ChEMBL document CHEMBL1667782, “Glucose-lowering activity of novel tetrasaccharide glyceroglycolipids from the fruits of Cucurbita moschata” (2011).

Holding throughout (assay type): functional
What all share (conditions): route intraperitoneal

Assay [1] relates to Mus musculus. The assay can be described thus: Antidiabetic activity in streptozotocin-induced C57/BL6J mouse diabetic model assessed as serum glucose level at 50 mg/kg, ip after 21 days (reference value: 23.89 +/- 6.98 mmol/L).
In assay [2] the test system is Mus musculus. The assay can be described thus: Antidiabetic activity in streptozotocin-induced C57/BL6J mouse diabetic model assessed as serum glucose level at 50 mg/kg, ip after 7 days (reference value: 22.65 +/- 6.16 mmol/L).
Assay [3] has as its system Mus musculus. The assay can be described thus: Antidiabetic activity in streptozotocin-induced C57/BL6J mouse diabetic model assessed as serum glucose level at 50 mg/kg, ip after 28 days (reference value: 23.77 +/- 6.12 mmol/L).
Assay [4] has as its system Mus musculus. The assay can be described thus: Antidiabetic activity in streptozotocin-induced C57/BL6J mouse diabetic model assessed as serum glucose level at 50 mg/kg, ip after 14 days (reference value: 22.17 +/- 5.63 mmol/L).

On to `CC/C=C\C/C=C\C/C=C\CCCCCCCC(=O)OCC(O)CO[C@@H]1O[C@H](CO[C@@H]2O[C@H](CO[C@@H]3O[C@H](CO[C@@H]4O[C@H](CO)[C@H](O)[C@H](O)[C@H]4O)[C@H](O)[C@H](O)[C@H]3O)[C@H](O)[C@H](O)[C@H]2O)[C@H](O)[C@H](O)[C@H]1O` (stereo partly drawn), for which the Activity is 16.36 mmol/L in the assay on Mus musculus [1], 20.89 mmol/L with Mus musculus [2], 14.61 mmol/L in the assay with Mus musculus [3] and 18.27 mmol/L with Mus musculus [4].

On to `CCCCC/C=C\C/C=C\CCCCCCCC(=O)OCC(O)CO[C@@H]1O[C@H](CO[C@@H]2O[C@H](CO[C@@H]3O[C@H](CO[C@@H]4O[C@H](CO)[C@H](O)[C@H](O)[C@H]4O)[C@H](O)[C@H](O)[C@H]3O)[C@H](O)[C@H](O)[C@H]2O)[C@H](O)[C@H](O)[C@H]1O` (stereo partly drawn), for which the Activity was found to be 18.17 mmol/L in the assay on Mus musculus [1], 21.47 mmol/L in the assay on Mus musculus [2], 15.73 mmol/L in the assay on Mus musculus [3] and 19.09 mmol/L in the assay on Mus musculus [4].
